Key:
Assay type in all cases: cell-based, human
BCSC2 cells [1] = assay: BCSC cell proliferation / dose-response assay; details: erlotinib, 10 μM (FIG. 7C)
Method: (§1) For dose-response assays, cells were detached by ACCUTASE solution dissociation and counted. […] After incubation at 37° C. for 30 min to solidify the [sequence], 1×10^3 single cells were seeded per 384-well in 40 μL medium. […] Following 96 hr of incubation under normal culture conditions, the cells were washed once with PBS and fixed with ice-cold methanol for at least 15 min at −20° C. After another washing step with PBS, cells were stained with DAPI (Sigma-Aldrich) and read-out with the ScanR microscope-based imaging platform (Olympus Deutschland GmbH, Hamburg, Del.). Total DAPI cell nuclear counts per well were determined.
(§2) For the cell proliferation assays, BCSCs tagged with a stable NLS-mCherry fluorescent signal (nuclear localization peptide) were used for this assay. Cells were detached by ACCUTASE dissociation and counted. Each well of a black 384-well plate (Greiner) was coated with 10 μL of MSC medium containing 2% [sequence]. After incubation at 37° C. for 30 min to solidify the [sequence], 1×10^3 single cells/well were seeded in 40 μL medium. […] Afterwards, the first readout with the ScanR microscope-based imaging platform (Olympus) was started, assessing mCherry-fluorescent cell nuclei in nine sectors of each well under 60% humidity and 5% CO2. This readout was repeated every 24 hr for 7 days. […]

BCSC1 cells [2] = assay: BCSC cell proliferation / dose-response assay; details: erlotinib, 10 μM (FIG. 7B)
Method: as §1, §2

BCSC2 cells [3] = assay: Anchorage-independent sphere formation assay (methylcellulose); details: erlotinib 1 μM or 10 μM (FIG. 7G)
Method: (§3) For the cancer stem-cell spheroid assay in methylcellulose, cells were detached by ACCUTASE solution and counted. 3×10^3 single BCSC1 and 1×10^3 single BCSC2 cells were seeded into individual wells of 96-well ultra-low attachment plates (CORNING, #3474) in serum-free MSC medium containing 1% methylcellulose (Sigma-Aldrich, #M0512).

BCSC1 cells [4] = assay: as above; details: erlotinib 1 μM or 10 μM (FIG. 7F)
Method: as §3

C#Cc1cccc(Nc2ncnc3cc(OCCOC)c(OCCOC)cc23)c1 [erlotinib]
proliferation of BCSC2 cells (BCSC2 cells [1]): blocked | proliferation of BCSC1 cells (BCSC1 cells [2]): blocked | 3D-colony forming capacity (BCSC2 cells [3]): dramatically reduced | 3D-colony forming capacity (BCSC1 cells [4]): dramatically reduced
